According to patent publication US10253081B2, “Glucagon analogues” (Zealand Pharma A/S, priority 2012, dated 2019):
pEC50: −log10 of the molar value. Read-outs that look alike come from different tables or passages of the source. *1 amine or outer side, *2 acyl side, *3 side chain or, on linkers, in order; H or OH if unused. Where a SMILES comes first, the peptide text is derived from it. Side-chain parts run from the residue outwards. [ ]: non-standard residue; d: D form. The star is where a group is joined. γGlu = O=C(O)[C@H](CCC(=O)[*:2])N[*:1]; Palmitoyl = CCCCCCCCCCCCCCCC(=O)*; Aib = CC(C)(N)C(=O)O

What was measured:
[1] = target: T1, human glucagon receptor (Glucagon-R) (Homo sapiens, UniProt P47871); experiment: Glucagon receptor efficacy assay (cAMP AlphaScreen, CHO cells); type: cell-based; details: Table 1A; CHO cells expressing human Glucagon-R, cAMP; read-out: EC50 hGCGR CHO-K1
T1 construct: expressed in transfected cells
Outline: (§1)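 Stably transfected CHO clones expressing human GLP-1R or glucagon receptor were treated with increasing peptide concentrations for 15 min at room temperature in KRBH containing 0.1 mM IBMX. After lysis, cAMP was quantified by AlphaScreen; EC50 and efficacy relative to GLP-1 or glucagon reference came from curve fitting.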

[2] = Oral glucose tolerance test (OGTT); type: in vivo, C57BL/6J mice; details: blood glucose AUC 0-120 min, 10 nmol/kg s.c. 4 h before oral glucose 2 g/kg
Method: Male C57BL/6J mice were fasted for 10 h before they received an oral glucose bolus of 2 g/kg body weight. Peptides were dissolved in saline buffered with 25 mM phosphate and administered at a dose of 10 nmol/kg body weight by subcutaneous injection 4 h before the glucose bolus. Control animals received a vehicle injection only. Group size was 7 animals per group. A pre-dose and a pre-glucose (0 min) blood sample were obtained by tail bleeding and blood glucose was measured with a glucometer. Additional samples of tail blood for measuring blood glucose were obtained 15 min, 30 min, 60 min, 90 min and 120 min after the glucose challenge. […] Calculation of AUC was done by the trapezoidal rule without baseline correction. The data are presented as mean±S.E.M. Statistical comparisons were conducted by one-way ANOVA followed by Tukey's post test. Vehicle alone was used as a control.

[3] = target: T2, human glucagon-like peptide 1 receptor (GLP-1R) (Homo sapiens, UniProt P43220); experiment: GLP-1 receptor efficacy assay (cAMP AlphaScreen, CHO cells); type: cell-based; details: Table 1A; for pEC50: CHO cells expressing human GLP-1-R, cAMP, read-out: EC50 hGLP-1R CHO-K1; for Ratio GLP-1/Glucagon: EC50 [GLP-1R]/EC50 [Glucagon-R]
T2 construct: expressed in transfected cells
Outline: as §1

[4] = Pharmacokinetic parameters after subcutaneous and intravenous administration to mice; type: in vivo; details: male, mouse, plasma, 20 nmol/kg, C57Bl/6J mice; for half-life: read-out: Terminal half life (converted); for MRT: read-out: Mean Residence Time
Method: Pharmacokinetic parameters of the test compounds were determined after subcutaneous and intravenous administration to C57Bl/6J mice.
8 week old male C57Bl/6J mice were obtained from Taconic (Denmark) weighing approximately 20-25 g at time of arrival at the test facility. The mice were caged in European standard cages type III with light cycle of 12-hour dark and 12-hour light (lights on 06.00). Both diet, Altromin 1324 (Altromin, Germany), and water was administered ad libitum during the whole experimental period. The 8-11 week animals were imported to the laboratory at least 7 days before the start up of the experimental procedure in order to assure proper acclimatization. After sampling the mice were euthanized by cervical dislocation.
The compounds were first dissolved in 0.096% aqueous ammonia to a nominal concentration of 2 mg/ml, and then diluted to the desired dosing strength (4 μM) in sterile PBS containing 25 mM phosphate buffer, pH 7.4. Subcutaneous and intravenous injections corresponding to 20 nmol/kg were given. The GLP-1-glucagon dual agonists were administered for subcutaneous dosing in the neck region and via a lateral tail vein for intravenous dosing.
Blood samples (250 μl) were collected from the periorbital plexus at time points 0.5, 2, 4, 6, 12, 16, 20, 24 h for subcutaneous and 10, 30 min, 3, 6, 12, 18, 24 h for intravenous administration into ice-chilled K3EDTA tubes and centrifuged for 5 minutes at 4° C. within 20 minutes of sampling. Plasma (>100 μl) was separated to ice-chilled Micronic tubes, immediately frozen, and kept at −70° C. until analysed for plasma concentration for the respective GLP-1-glucagon compound using LC-MS/MS. Individual plasma concentration-time profiles were analysed by a non-compartmental approach in WinNonLin v6.3 (Pharsight inc, Mountain View, Calif., USA), and the resulting pharmacokinetic parameters determined.

T2 sequence (P43220 24-463): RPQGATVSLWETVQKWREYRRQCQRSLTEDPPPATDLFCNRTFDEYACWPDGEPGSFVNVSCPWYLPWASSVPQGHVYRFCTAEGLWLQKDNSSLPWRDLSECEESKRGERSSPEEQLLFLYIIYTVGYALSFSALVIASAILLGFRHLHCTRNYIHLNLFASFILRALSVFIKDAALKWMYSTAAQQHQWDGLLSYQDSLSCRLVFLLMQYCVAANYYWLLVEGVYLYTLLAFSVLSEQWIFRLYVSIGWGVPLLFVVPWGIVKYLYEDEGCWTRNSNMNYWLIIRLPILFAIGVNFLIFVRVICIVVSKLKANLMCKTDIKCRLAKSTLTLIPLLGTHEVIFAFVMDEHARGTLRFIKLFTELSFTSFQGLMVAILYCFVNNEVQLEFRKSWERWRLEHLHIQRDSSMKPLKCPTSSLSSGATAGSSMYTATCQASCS
T1 sequence (P47871 26-477): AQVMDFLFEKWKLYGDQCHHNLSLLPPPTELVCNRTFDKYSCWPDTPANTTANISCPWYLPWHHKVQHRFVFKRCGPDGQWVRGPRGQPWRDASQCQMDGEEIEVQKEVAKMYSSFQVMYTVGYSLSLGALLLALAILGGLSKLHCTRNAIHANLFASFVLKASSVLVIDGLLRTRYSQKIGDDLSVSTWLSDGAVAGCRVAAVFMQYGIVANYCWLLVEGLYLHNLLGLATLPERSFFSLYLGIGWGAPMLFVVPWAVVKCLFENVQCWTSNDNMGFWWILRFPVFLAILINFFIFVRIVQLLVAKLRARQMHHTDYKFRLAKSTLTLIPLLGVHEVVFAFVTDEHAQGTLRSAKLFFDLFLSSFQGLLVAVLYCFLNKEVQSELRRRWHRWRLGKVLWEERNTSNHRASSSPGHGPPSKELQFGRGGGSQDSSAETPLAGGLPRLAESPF

| SMILES | pEC50 [1] | AUC (% Ctrl) [2] [% Ctrl] | pEC50 [3] | Ratio GLP-1/Glucagon [3] | clearance ([4]; IV) [mL/min/kg] | half-life ([4]; IV) [h] | Tmax ([4]; SC) [h] | bioavailability ([4]; SC) [%] | MRT ([4]; SC) [h] | half-life ([4]; SC) [h] |
| --- | --- | --- | --- | --- | --- | --- | --- | --- | --- | --- |
| CCCCCCCCCCCCCCCC(=O)N[C@@H](CCC(=O)NCCCC[C@H](NC(=O)[C@H](CO)NC(=O)[C@H](CC(=O)O)NC(=O)[C@H](CC(C)C)NC(=O)[C@H](Cc1ccc(O)cc1)NC(=O)[C@H](CCCCN)NC(=O)[C@H](CO)NC(=O)[C@H](Cc1ccc(O)cc1)NC(=O)[C@H](CC(=O)O)NC(=O)[C@H](CO)NC(=O)[C@@H](NC(=O)[C@H](Cc1ccccc1)NC(=O)[C@@H](NC(=O)CNC(=O)[C@H](CCC(N)=O)NC(=O)C(C)(C)NC(=O)[C@@H](N)Cc1c[nH]cn1)[C@@H](C)O)[C@@H](C)O)C(=O)N[C@@H](C)C(=O)N[C@@H](C)C(=O)N[C@@H](Cc1c[nH]cn1)C(=O)N[C@@H](CC(=O)O)C(=O)N[C@@H](Cc1ccccc1)C(=O)N[C@H](C(=O)N[C@@H](CCC(=O)O)C(=O)N[C@@H](Cc1c[nH]c2ccccc12)C(=O)N[C@@H](CC(C)C)C(=O)N[C@@H](CC(C)C)C(=O)N[C@@H](CO)C(=O)N[C@@H](C)C(=O)O)C(C)C)C(=O)O [Compound 13, H-H-Aib-QGTFTSDYSKYLDS-K(Hexadecanoyl-isoGlu)-AAHDFVEWLLSA-OH] | 9.01 | 55 | 9.29 | 0.52 | 0.148 | 6.3 | 4 | 76 | 14.7 | 8.6 |
| CCCCCCCCCCCCCCCC(=O)N[C@@H](CCC(=O)NCCCC[C@H](NC(=O)[C@H](CO)NC(=O)[C@H](CC(=O)O)NC(=O)[C@H](CC(C)C)NC(=O)[C@H](Cc1ccc(O)cc1)NC(=O)[C@H](CCCCN)NC(=O)[C@H](CO)NC(=O)[C@H](Cc1ccc(O)cc1)NC(=O)[C@H](CC(=O)O)NC(=O)[C@H](CO)NC(=O)[C@@H](NC(=O)[C@H](Cc1ccccc1)NC(=O)[C@@H](NC(=O)CNC(=O)[C@H](CCC(N)=O)NC(=O)C(C)(C)NC(=O)[C@@H](N)Cc1c[nH]cn1)[C@@H](C)O)[C@@H](C)O)C(=O)N[C@@H](C)C(=O)N[C@@H](C)C(=O)N[C@@H](Cc1c[nH]cn1)C(=O)N[C@@H](CC(=O)O)C(=O)N[C@@H](Cc1ccccc1)C(=O)N[C@H](C(=O)N[C@@H](CCC(=O)O)C(=O)N[C@@H](Cc1c[nH]c2ccccc12)C(=O)N[C@@H](CC(C)C)C(=O)N[C@@H](CCC(=O)O)C(=O)N[C@@H](CO)C(=O)N[C@@H](C)C(N)=O)C(C)C)C(=O)O [Compound 5, H-H-Aib-QGTFTSDYSKYLDS-K(Hexadecanoyl-isoGlu)-AAHDFVEWLESA-NH2] (H-H[Aib]QGTFTSDYSKYLDSK([γGlu-Palmitoyl])AAHDFVEWLESA-NH2) | 9.34 | 46 | 9.80 | 0.35 | 0.185 | 4 | 4 | 81 | 7.6 | 3.8 |
| CCCCCCCCCCCCCCCC(=O)N[C@@H](CCC(=O)NCCCC[C@H](NC(=O)[C@H](CCC(=O)O)NC(=O)[C@H](CC(=O)O)NC(=O)[C@H](CC(C)C)NC(=O)[C@H](Cc1ccc(O)cc1)NC(=O)[C@H](CCCCN)NC(=O)[C@H](CO)NC(=O)[C@H](Cc1ccc(O)cc1)NC(=O)[C@H](CC(=O)O)NC(=O)[C@H](CO)NC(=O)[C@@H](NC(=O)[C@H](Cc1ccccc1)NC(=O)[C@@H](NC(=O)CNC(=O)[C@H](CCC(N)=O)NC(=O)[C@H](CO)NC(=O)[C@@H](N)Cc1c[nH]cn1)[C@@H](C)O)[C@@H](C)O)C(=O)N[C@@H](C)C(=O)N[C@@H](C)C(=O)N[C@@H](Cc1c[nH]cn1)C(=O)N[C@@H](CCC(=O)O)C(=O)N[C@@H](Cc1ccccc1)C(=O)N[C@H](C(=O)N[C@@H](CCC(=O)O)C(=O)N[C@@H](Cc1c[nH]c2ccccc12)C(=O)N[C@@H](CC(C)C)C(=O)N[C@@H](CCC(=O)O)C(=O)N[C@@H](CO)C(=O)N[C@@H](C)C(N)=O)C(C)C)C(=O)O [Compound 10, H-HSQGTFTSDYSKYLDE-K(Hexadecanoyl-isoGlu)-AAHEFVEWLESA-NH2] (H-HSQGTFTSDYSKYLDEK([γGlu-Palmitoyl])AAHEFVEWLESA-NH2) | 9.64 | 46 | 9.64 | 1.00 | 0.355 | 3 | 2 | 80 | 6.5 | 3.7 |
| CCCCCCCCCCCCCCCC(=O)N[C@@H](CCC(=O)NCCCC[C@H](NC(=O)[C@H](CO)NC(=O)[C@H](CC(=O)O)NC(=O)[C@H](CC(C)C)NC(=O)[C@H](Cc1ccc(O)cc1)NC(=O)[C@H](CCCCN)NC(=O)[C@H](CO)NC(=O)[C@H](Cc1ccc(O)cc1)NC(=O)[C@H](CC(=O)O)NC(=O)[C@H](CO)NC(=O)[C@@H](NC(=O)[C@H](Cc1ccccc1)NC(=O)[C@@H](NC(=O)CNC(=O)[C@H](CCC(N)=O)NC(=O)[C@H](CO)NC(=O)[C@@H](N)Cc1c[nH]cn1)[C@@H](C)O)[C@@H](C)O)C(=O)N[C@@H](C)C(=O)N[C@@H](C)C(=O)N[C@@H](Cc1c[nH]cn1)C(=O)N[C@@H](CC(=O)O)C(=O)N[C@@H](Cc1ccccc1)C(=O)N[C@H](C(=O)N[C@@H](CCC(=O)O)C(=O)N[C@@H](Cc1c[nH]c2ccccc12)C(=O)N[C@@H](CC(C)C)C(=O)N[C@@H](CC(C)C)C(=O)N[C@@H](CO)C(N)=O)C(C)C)C(=O)O [Compound 8, H-HSQGTFTSDYSKYLDS-K(Hexadecanoyl-isoGlu)-AAHDFVEWLLS-NH2] (H-HSQGTFTSDYSKYLDSK([γGlu-Palmitoyl])AAHDFVEWLLS-NH2) | 9.54 | 50 | 9.39 | 1.41 | 0.128 | 3.9 | 4 | 42 | 8.1 | 4.1 |
| CCCCCCCCCCCCCCCC(=O)N[C@@H](CCC(=O)NCCCC[C@H](NC(=O)[C@H](CO)NC(=O)[C@H](CC(=O)O)NC(=O)[C@H](CC(C)C)NC(=O)[C@H](Cc1ccc(O)cc1)NC(=O)[C@H](CCCCN)NC(=O)[C@H](CO)NC(=O)[C@H](Cc1ccc(O)cc1)NC(=O)[C@H](CC(=O)O)NC(=O)[C@H](CO)NC(=O)[C@@H](NC(=O)[C@H](Cc1ccccc1)NC(=O)[C@@H](NC(=O)CNC(=O)[C@H](CCC(N)=O)NC(=O)C(C)(C)NC(=O)[C@@H](N)Cc1c[nH]cn1)[C@@H](C)O)[C@@H](C)O)C(=O)N[C@@H](C)C(=O)N[C@@H](C)C(=O)N[C@@H](Cc1c[nH]cn1)C(=O)N[C@@H](CC(=O)O)C(=O)N[C@@H](Cc1ccccc1)C(=O)N[C@H](C(=O)N[C@@H](CCC(=O)O)C(=O)N[C@@H](Cc1c[nH]c2ccccc12)C(=O)N[C@@H](CC(C)C)C(=O)N[C@@H](CC(C)C)C(=O)N[C@@H](CO)C(=O)O)C(C)C)C(=O)O [Compound 1, H-H-Aib-QGTFTSDYSKYLDS-K(Hexadecanoyl-isoGlu)-AAHDFVEWLLS-OH] (H-H[Aib]QGTFTSDYSKYLDSK([γGlu-Palmitoyl])AAHDFVEWLLS-OH) | 9.05 | 66 | 9.27 | 0.60 | 0.17 | 5.2 | 4 | 52 | 12.6 | 6.2 |
